In this assay the target is T1, catalytic domain of human Bub1 (amino acids 704-1085) (Homo sapiens, UniProt O43683).
T1 construct: catalytic domain of human Bub1 (amino acids 704-1085); His6 (N); made in house; host or cells: insect cells (Hi5)
T1 sequence (O43683 704-1085): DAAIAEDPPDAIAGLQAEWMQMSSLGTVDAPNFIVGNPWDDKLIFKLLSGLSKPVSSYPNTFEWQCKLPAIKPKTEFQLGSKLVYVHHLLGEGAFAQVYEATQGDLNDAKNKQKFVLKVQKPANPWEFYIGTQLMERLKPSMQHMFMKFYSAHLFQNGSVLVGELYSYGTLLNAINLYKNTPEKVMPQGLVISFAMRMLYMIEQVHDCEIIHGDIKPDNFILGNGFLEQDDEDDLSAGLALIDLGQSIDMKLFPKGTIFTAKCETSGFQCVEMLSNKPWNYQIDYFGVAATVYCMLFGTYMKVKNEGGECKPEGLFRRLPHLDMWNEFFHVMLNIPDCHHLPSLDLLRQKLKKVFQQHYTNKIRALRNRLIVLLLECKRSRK
The assay is described as follows: Bub1 kinase assay (TR-FRET). Type of assay: biochemical. The note with it: 10 μM ATP, avg, read-out: Bub1 avg (IC50 [mol/l]). Put shortly:
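Readout is the 665/620 nm TR-FRET ratio from anti-phosphoserine antibody, Eu-labelled anti-mouse IgG and streptavidin-XL665, scaled between no-enzyme and uninhibited controls. Reaction: 1 μM biotinylated peptide, 10 μM ATP, 60 min, 22 °C, after 15 min compound preincubation with His6-Bub1 (704-1085, insect-expressed, ~200 ng/ml).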
A general note: Time-resolved FRET reads energy transfer from a long-lived donor to a nearby acceptor.
For the compound `Cc1nsc(Nc2cnc3ccccc3n2)c1C(=O)Nc1ccc(OC2CCN(CC(F)(F)F)CC2)nc1` [Example 21, 3-Methyl-5-(quinoxalin-2-ylamino)-N-(6-{[1-(2,2,2-trifluoroethyl)piperidin-4-yl]oxy}-pyridin-3-yl)-1,2-thiazole-4-carboxamide], the IC50 is not below 20 µM.
The same measure for `CC(=O)N1CCC(Oc2ccc(NC(=O)c3c(C)nsc3Nc3cnc4ccccc4n3)cn2)CC1` [Example 22, N-{6-[(1-acetylpiperidin-4-yl)oxy]pyridin-3-yl}-3-methyl-5-(quinoxalin-2-ylamino)-1,2-thiazole-4-carboxamide]: not below 20 µM; for `Cc1nsc(Nc2cc(C#N)ccn2)c1C(=O)Nc1ccc(OC2CCN(C(=O)OC(C)(C)C)CC2)nc1` [Example 23, tert-Butyl 4-({5-[({5-[(4-cyanopyridin-2-yl)amino]-3-methyl-1,2-thiazol-4-yl}-carbonyl)amino]pyridin-2-yl}oxy)piperidine-1-carboxylate]: not below 20 µM.
The same measure for `Cc1nsc(Nc2cc(C#N)ccn2)c1C(=O)Nc1ccc(OC2CCNCC2)nc1` [Example 24, 5-[(4-Cyanopyridin-2-yl)amino]-3-methyl-N-[6-(piperidin-4-yloxy)pyridin-3-yl]-1,2-thiazole-4-carboxamide]: not below 20 µM; for `Cc1nsc(Nc2cc(C#N)ccn2)c1C(=O)Nc1ccc(OC2CCN(CC(F)(F)F)CC2)nc1` [Example 25, 5-[(4-Cyanopyridin-2-yl)amino]-3-methyl-N-(6-{[1-(2,2,2-trifluoroethyl)piperidin-4-yl]oxy}pyridin-3-yl)-1,2-thiazole-4-carboxamide]: not below 20 µM; for `CCN1CCC(Oc2ccc(NC(=O)c3c(C)nsc3Nc3cc(C#N)ccn3)cn2)CC1` [Example 26, 5-[(4-Cyanopyridin-2-yl)amino]-N-{6-[(1-ethylpiperidin-4-yl)oxy]pyridin-3-yl}-3-methyl-1,2-thiazole-4-carboxamide]: not below 20 µM.
The same measure for `Cc1nsc(Nc2ccc(C#N)cn2)c1C(=O)Nc1ccc(OC2CCN(C(=O)OC(C)(C)C)CC2)nc1` [Example 27, tert-Butyl 4-({5-[({5-[(5-cyanopyridin-2-yl)amino]-3-methyl-1,2-thiazol-4-yl}-carbonyl)amino]pyridin-2-yl}oxy)piperidine-1-carboxylate]: not below 20 µM.
As to `Cc1nsc(Nc2cnc3ccccc3n2)c1C(=O)Nc1ccc(N2CCN(C(=O)OC(C)(C)C)CC2)nc1` [Example 248, tert-butyl 4-[5-({[3-methyl-5-(quinoxalin-2-ylamino)-1,2-thiazol-4-yl]carbonyl}amino)pyridin-2-yl]piperazine-1-carboxylate], the IC50 was more than 20 µM.
The same measure for `Cc1nsc(Nc2cnc3ccccc3n2)c1C(=O)Nc1cccc(C(=O)NC2CC2)c1` [Example 249, N-[3-(cyclopropylcarbamoyl)phenyl]-3-methyl-5-(quinoxalin-2-ylamino)-1,2-thiazole-4-carboxamide]: 1.2 µM; for `Cc1nsc(Nc2ccc(C#N)cn2)c1C(=O)Nc1cccc(C(=O)NC2CC2)c1` [Example 250, 5-[(5-cyanopyridin-2-yl)amino]-N-[3-(cyclopropylcarbamoyl)phenyl]-3-methyl-1,2-thiazole-4-carboxamide]: more than 20 µM.
The same measure for `CCNC(=O)c1cccc(NC(=O)c2c(C)nsc2Nc2cnc3ccccc3n2)c1` [Example 251, N-[3-(ethylcarbamoyl)phenyl]-3-methyl-5-(quinoxalin-2-ylamino)-1,2-thiazole-4-carboxamide]: 0.6 µM; for `CCNC(=O)c1cccc(NC(=O)c2c(C)nsc2Nc2ccc(C#N)cn2)c1` [Example 252, 5-[(5-cyanopyridin-2-yl)amino]-N-[3-(ethylcarbamoyl)phenyl]-3-methyl-1,2-thiazole-4-carboxamide]: more than 20 µM.
The same measure for `Cc1nsc(Nc2cnc3ccccc3n2)c1C(=O)Nc1cccc(C(=O)NC(C)C)c1` [Example 253, N-[3-(isopropylcarbamoyl)phenyl]-3-methyl-5-(quinoxalin-2-ylamino)-1,2-thiazole-4-carboxamide]: 0.32 µM.
`Cc1nsc(Nc2cc(C#N)ccn2)c1C(=O)Nc1cccc(C(=O)NC(C)C)c1` [Example 254, 5-[(4-cyanopyridin-2-yl)amino]-N-[3-(isopropylcarbamoyl)phenyl]-3-methyl-1,2-thiazole-4-carboxamide]: the IC50 is 3.2 µM.
As for `Cc1nsc(Nc2ccc(C#N)cn2)c1C(=O)Nc1cccc(C(=O)NC(C)C)c1` [Example 255, 5-[(5-cyanopyridin-2-yl)amino]-N-[3-(isopropylcarbamoyl)phenyl]-3-methyl-1,2-thiazole-4-carboxamide], the IC50 was more than 20 µM.
On to `COC(=O)CCCc1ccc(NC(=O)c2c(C)nsc2Nc2cc(C#N)ccn2)cc1` [Example 256, methyl 4-{4-[({5-[(4-cyanopyridin-2-yl)amino]-3-methyl-1,2-thiazol-4-yl}carbonyl)amino]phenyl}butanoate], for which the IC50 is more than 20 µM.
The same measure for `COC(=O)CCc1cccc(NC(=O)c2c(C)nsc2Nc2cnc3ccccc3n2)c1` [Example 257, methyl 3-[3-({[3-methyl-5-(quinoxalin-2-ylamino)-1,2-thiazol-4-yl]carbonyl}amino)phenyl]propanoate]: more than 20 µM.
The same measure for `Cc1nsc(Nc2cnc3ccccc3n2)c1C(=O)Nc1cccc(NS(=O)(=O)C2CCN(C(=O)OC(C)(C)C)CC2)c1` [Example 258, tert-butyl 4-{[3-({[3-methyl-5-(quinoxalin-2-ylamino)-1,2-thiazol-4-yl]carbonyl}amino)phenyl]sulfamoyl} piperidine-1-carboxylate]: more than 20 µM; for `Cc1nsc(Nc2cnc(C(F)(F)F)cn2)c1C(=O)Nc1ccc(C(=O)NC2CCN(CC(F)F)CC2)cc1` [Example 259, N-(4-{[1-(2,2-difluoroethyl)piperidin-4-yl]carbamoyl}phenyl)-3-methyl-5-{[5-(trifluoromethyl)pyrazin-2-yl]amino}-1,2-thiazole-4-carboxamide]: more than 20 µM.
The same measure for `Cc1nsc(Nc2cnc(C(F)(F)F)cn2)c1C(=O)Nc1ccc(C(=O)N2CCN(CC(F)(F)F)CC2)cc1` [Example 260, 3-methyl-N-(4-{[4-(2,2,2-trifluoroethyl)piperazin-1-yl]carbonyl}phenyl)-5-{[5-(trifluoromethyl)pyrazin-2-yl]amino}-1,2-thiazole-4-carboxamide]: more than 20 µM.
`CCN1CCN(C(=O)c2ccc(NC(=O)c3c(C)nsc3Nc3cnc(C(F)(F)F)cn3)cc2)CC1` [Example 261, N-{4-[(4-ethylpiperazin-1-yl)carbonyl]phenyl}-3-methyl-5-{[5-(trifluoromethyl)pyrazin-2-yl]amino}-1,2-thiazole-4-carboxamide]: the IC50 was more than 20 µM.
The same measure for `Cc1nsc(Nc2cnc(C(F)(F)F)cn2)c1C(=O)Nc1ccc(C(=O)N2CCN(C)CC2)cc1` [Example 262, 3-methyl-N-{4-[(4-methylpiperazin-1 yl)carbonyl]phenyl}-5-{[5-(trifluoromethyl)pyrazin-2-yl]amino}-1,2-thiazole-4-carboxamide]: more than 20 µM.
The same measure for `Cc1nsc(Nc2cc(C#N)ccn2)c1C(=O)Nc1ccc(OC2CCN(CC(F)F)CC2)nc1` [Example 263, 5-[(4-cyanopyridin-2-yl)amino]-N-(6-{[1-(2,2-difluoroethyl)piperidin-4-yl]oxy}pyridin-3-yl)-3-methyl-1,2-thiazole-4-carboxamide]: more than 20 µM.
